# Measured values reported in patent US7189754B2, “Pyrrolidine ester derivatives with oxytocin modulating activity” (Applied Research Systems ARS Holding NV, priority 2001, dated 2007).
# Tested on: oxytocin-induced uterine contractions in the rat
# Assay: In vivo model for inhibition of uterine contractions (oxytocin-induced, anaesthetised DES-treated rats)
# Conditions: intravenous, PEG400/saline 50:50, 5 ml/kg infusion
# Description: d) In Vivo Model for Inhibtion of Uterine Contractions
# The assay evaluates the biological effect of tested compounds in an in vivo model of preterm labor, premature birth.
# Non-pregnant Charles River CD (SD) BR female rats (9–10 weeks old, 200–250 g) were treated at 18 and 24 hours before the experiment with 250 μg/kg, i.p. diethylstilbestrol (DES). For the assay, the animal was anaesthetised with urethane (1.75 g/kg, i.p.) and placed on a homeothermic operating table. The trachea was isolated and cannulated with a suitable polyethylene (PE) tubing. A midline incision at the hypogastrium level was made and one uterine horn exposed, its cephalic end cannulated with a PE240 tubing and, after filling the internal cavity with 0.2 ml of sterile physiological saline, connected to a “Gemini” amplifying/recording system via a P23ID Gould Statham pressure transducer.
# One jugular vein was isolated, cannulated with a PE60 tubing and connected to a butterfly needle to provide an i.v. route of administration of the test compounds via a dispensing syringe.
# In the case of intraduodenal administration of the test compounds, the duodenum can be isolated and similarly cannulated through a small incision in its wall.
# One carotid artery was also isolated and cannulated with PE60 catheter and connected to a suitable syringe for blood sample collection.
# After a stabilization period and throughout the experiment, the same dose of oxytocin was repeatedly injected intravenously at 30-min intervals. When reproducible contractile responses of the uterus to the same OT stimulus (selected dose of oxytocin) were obtained, the dose of the test compound or of the reference (vehicle) was administered. […]
# The contractile response of the uterus to oxytocin was quantified by measuring the intrauterine pressure and the number of contractions. The effect of the reference and test compounds was evaluated by comparing pre- and post-treatment pressure values. […]
# The activities of the pyrrolidine derivatives of formula (I) may be assessed using the above described in vivo biological assay. […]
structure (smiles),measurement,setting,value
"CO/N=C1/C[C@@H](C(=O)OC)N(C(=O)c2ccc(-c3ccccc3C)cc2)C1 [Methyl (2S,4Z)-4-(methoxyimino)-1-[(2′-methyl[1,1′-biphenyl]-4-yl)carbonyl]-2-pyrrolidinecarboxylate]",% Reduction of Uterine Contraction,dose 1 mg/kg,−35.4 ± 7.0%
same,% Reduction of Uterine Contraction,dose 3 mg/kg,−49.0 ± 6.5%
same,% Reduction of Uterine Contraction,dose 10 mg/kg,−51.8 ± 9.2%
